# Measurements published in US12617773B2, “Azetidin-3-ylmethanol derivatives as CCR6 receptor modulators” (Idorsia Pharmaceuticals Ltd, priority 2020, dated 2026).
# pIC50: −log10 of the molar value.
# Biological target: T1, human CCR6 (Homo sapiens, UniProt P51684)
# T1 construct: expressed in transfected cells; host or cells: HEK-293
# T1 sequence (P51684 1-374): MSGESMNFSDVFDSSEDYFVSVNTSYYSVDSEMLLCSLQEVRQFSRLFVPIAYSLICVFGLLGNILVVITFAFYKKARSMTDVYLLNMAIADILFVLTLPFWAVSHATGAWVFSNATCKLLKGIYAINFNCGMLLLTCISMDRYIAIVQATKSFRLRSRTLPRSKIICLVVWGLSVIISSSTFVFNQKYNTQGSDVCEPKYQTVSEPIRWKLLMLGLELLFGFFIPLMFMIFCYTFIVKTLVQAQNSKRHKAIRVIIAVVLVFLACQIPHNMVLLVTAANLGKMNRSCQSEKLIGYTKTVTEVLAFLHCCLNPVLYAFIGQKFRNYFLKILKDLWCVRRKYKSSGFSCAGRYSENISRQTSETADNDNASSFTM
# Assay: FLIPR assay (inhibition of CCL20-induced calcium signal)
# Type: cell-based
# Details: HEK-293 cells expressing human CCR6; mean values where determined several times; read-out: FLIPR IC50
# Method in brief: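 Dye-loaded HEK-293 cells expressing human CCR6 were preincubated with compound for 30 min at room temperature in the dark, then challenged with 10 nM CCL20 (final). Fluorescence was tracked on FLIPR, and baseline-subtracted peak emission over base after agonist addition gave inhibition dose-response curves for IC50.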
row,Structure (SMILES),pIC50
1,CC(C)c1ccc([C@](O)(c2cncc(-c3noc(CN4C(=O)CNC4=O)n3)c2)C2(C)CN(C)C2)cc1 [Example 486],6.54
2,CC(=O)N1CCC(O)(Cc2nc(-c3cncc([C@@](O)(c4ccc(C(C)C)cc4)C4(C)CN(C)C4)c3)no2)CC1 [Example 459],6.36
3,CC(C)c1ccc([C@](O)(c2cncc(-c3noc(CN4CC(=O)NC4=O)n3)c2)C2(C)CN(C)C2)cc1 [Example 484],6.23
4,"CC(=O)NC1(Cc2nc(-c3cncc([C@@](O)(c4ccc(C(C)C)cc4)C4(C)CN(C)C4)c3)no2)CC1 [Example 460, N-[1-(3-{5-[(R)-(1,3-Dimethyl-azetidin-3-yl)-hydroxy-(4-isopropyl-phenyl)-methyl]-pyridin-3-yl}-[1,2,4]oxadiazol-5-ylmethyl)-cyclopropyl]-acetamide]",6.33
5,"COc1cc(C(C)(O)C#Cc2cncc([C@@](O)(c3ccc(C(C)C)cc3)C3(C)CN(C)C3)c2)ncn1 (single isomer, unassigned) [Example 622]",6.98
6,CC(C)c1ccc([C@](O)(c2cncc(N3CC4OCCC4C3=O)c2)C2(C)CN(C)C2)cc1 (mixture of isomers) [Example 210],6.49
7,Cc1cc(C(C)(O)CCc2cncc(C(O)(c3ccc(C(C)C)cc3)C3(C)CN(C)C3)c2)ncn1 (stereo not shown) [Example 75],6.74
8,CC(C)C(=O)N1CC(O)(C#Cc2cncc([C@@](O)(c3ccc(C(C)C)cc3)C3(C)CN(C)C3)c2)C1 [Example 46],6.84
9,CC(C)c1ccc([C@](O)(c2cncc(-c3noc(CN4CCN(C5CC5)C4=O)n3)c2)C2(C)CN(C)C2)cc1 [Example 490],6.84
10,CC(=O)N1CCC(C#Cc2cc([C@@](O)(c3ccc(C(C)C)cc3)C3(C)CN(C)C3)cnn2)CC1 [Example 662],6.48
11,"CC(C)c1ccc([C@](O)(c2cnnc(CCC3(O)CCCc4cccnc43)c2)C2(C)CN(C)C2)cc1 (stereo partly drawn) [Example 418, 8-(2-{5-[(R)-(1,3-Dimethyl-azetidin-3-yl)-hydroxy-(4-isopropyl-phenyl)-methyl]-pyridazin-3-yl}-ethyl)-5,6,7,8-tetrahydro-quinolin-8-ol]",6.72
12,"CC(=O)N(C)C1(Cc2nc(-c3cncc([C@@](O)(c4ccc(C(C)C)cc4)C4(C)CN(C)C4)c3)no2)CC1 [Example 463, N-[1-(3-{5-[(R)-(1,3-Dimethyl-azetidin-3-yl)-hydroxy-(4-isopropyl-phenyl)-methyl]-pyridin-3-yl}-[1,2,4]oxadiazol-5-ylmethyl)-cyclopropyl]-N-methyl-acetamide]",6.91
13,[2H]C([2H])([2H])C(=O)NC1(c2nc(-c3cncc([C@@](O)(c4ccc(C(C)C)cc4)C4(C)CN(C)C4)c3)no2)CC1 [Example 332],6.54
14,C=C(C)c1ccc([C@](O)(c2cncc(-c3noc(C(C)(C)O)n3)c2)C2(C)CN(C)C2)cc1 [Example 575],6.99
15,CC(C)c1ccc([C@](O)(c2cncc(-c3noc(CN4C(=O)CCC4=O)n3)c2)C2(C)CN(C)C2)cc1 [Example 491],6.76
16,CC(=O)NC(C)(C)C#Cc1cc([C@@](O)(c2ccc(C(C)C)cc2)C2(C)CN(C)C2)cnn1 [Example 663],6.00

# Continued by rising pIC50, values first:
row,pIC50,Structure (SMILES)
1,6.99,"CC(=O)N1CC[C@H](Cc2nc(-c3cncc([C@@](O)(c4ccc(C(C)C)cc4)C4(C)CN(C)C4)c3)no2)C1 [Example 454, 1-[(R)-3-(3-{5-[(R)-(1,3-Dimethyl-azetidin-3-yl)-hydroxy-(4-isopropyl-phenyl)-methyl]-pyridin-3-yl}-[1,2,4]oxadiazol-5-ylmethyl)-pyrrolidin-1-yl]-ethanone]"
2,6.99,"CC(C)c1ccc([C@](O)(c2cnnc(CCC(C)(O)c3ccccc3)c2)C2(C)CN(C)C2)cc1 (stereo partly drawn) [Example 429, 4-{5-[(R)-(1,3-Dimethyl-azetidin-3-yl)-hydroxy-(4-isopropyl-phenyl)-methyl]-pyridazin-3-yl}-2-phenyl-butan-2-ol]"
3,7.06,CCc1ccc([C@](O)(c2cncc(C#CC(C)(O)c3cccc(C)n3)c2)C2(C)CN(C)C2)cc1 (stereo partly shown) [Example 657]
4,7.08,CC(=O)N1CCCC(c2nc(-c3cncc([C@@](O)(c4ccc(C(C)C)cc4)C4(C)CN(C)C4)c3)no2)C1 (stereo partly shown) [Example 455]
5,7.11,CC(C)c1ccc([C@](O)(c2cncc(OCCCO)c2)C2(C)CN(C)C2)cc1 [Example 249]
6,7.21,CC(C)c1ccc([C@](O)(c2cncc(-c3noc(CC(C)(C)NC(=O)C4CC4)n3)c2)C2(C)CN(C)C2)cc1 [Example 468]
7,7.23,"CC(C)c1ccc([C@](O)(c2cncc(-c3ncon3)c2)C2(C)CN(C)C2)cc1 [Example 530, (R)-(1,3-Dimethyl-azetidin-3-yl)-(4-isopropyl-phenyl)-(5-[1,2,4]oxadiazol-3-yl-pyridin-3-yl)-methanol]"
8,7.29,CC(C)c1ccc([C@](O)(c2cncc(C#CC3CCN(C(=O)OC(C)(C)C)CC3)c2)C2(C)CN(C)C2)cc1 [Example 407]
9,7.30,CC(C)c1ccc([C@](O)(c2cncc(-c3noc(COC4(C)CCOCC4)n3)c2)C2(C)CN(C)C2)cc1 [Example 132]
10,7.35,"CC(C)c1ccc([C@](O)(c2cncc(-c3noc(C(C)(C)O)n3)c2)C2(F)CN(C)C2)cc1 [Example 445, 2-(3-{5-[(S)-(3-Fluoro-1-methyl-azetidin-3-yl)-hydroxy-(4-isopropyl-phenyl)-methyl]-pyridin-3-yl}-[1,2,4]oxadiazol-5-yl)-propan-2-ol]"
11,7.35,CCC(CC)c1ccc(C(O)(c2cncc(-c3noc(C(C)(C)O)n3)c2)C2(C)CN(C)C2)cc1 (stereo not shown) [Example 562]
12,7.36,"COCC#Cc1cncc(C(O)(c2ccc(C(C)C)cc2)C2(C)CN(C)C2)c1 (stereo not shown) [Example 13, (1,3-Dimethyl-azetidin-3-yl)-(4-isopropyl-phenyl)-[5-(3-methoxy-prop-1-ynyl)-pyridin-3-yl]-methanol]"
13,7.38,CC(C)c1ccc([C@](O)(c2cncc(-c3noc(C4(O)CCCC4)n3)c2)C2(C)CN(C)C2)cc1 [Example 122]
14,7.39,"Cc1coc(-c2cncc([C@@](O)(c3ccc(C(C)C)cc3)C3(C)CN(C)C3)c2)n1 [Example 300, (R)-(1,3-Dimethyl-azetidin-3-yl)-(4-isopropyl-phenyl)-[5-(4-methyl-oxazol-2-yl)-pyridin-3-yl]-methanol]"
15,7.39,CC(C)c1ccc([C@](O)(c2cncc(-c3noc(CCC4CCOCC4)n3)c2)C2(C)CN(C)C2)cc1 [Example 128]
16,7.44,CC(C)c1ccc([C@](O)(c2cncc(-c3noc(C4(O)CCC4)n3)c2)C2(C)CN(C)C2)cc1 [Example 129]
17,7.46,CN1CC(C)([C@](O)(c2ccc(C(F)(F)C(F)(F)F)cc2)c2cncc(-c3noc(C(C)(C)O)n3)c2)C1 [Example 542]
18,7.54,"CC(C)c1ccc(C(O)(c2cncc(N3CC[C@H](C(C)C)C3)c2)C2(C)CN(C)C2)cc1 (stereo partly drawn) [Example 223, (1,3-Dimethyl-azetidin-3-yl)-(4-isopropyl-phenyl)-[5-((R)-3-isopropyl-pyrrolidin-1-yl)-pyridin-3-yl]-methanol]"
19,7.67,CC(C)c1ccc([C@](O)(c2cncc(-c3noc(COC(C)(C)C)n3)c2)C2(C)CN(C)C2)cc1 [Example 109]
20,7.72,CNS(=O)(=O)N1CCC(C)(C#Cc2cncc([C@@](O)(c3ccc(C(C)C)cc3)C3(C)CN(C)C3)c2)CC1 [Example 604]
21,7.96,CC(C)Oc1cncc([C@@](O)(c2ccc(C(C)C)cc2)C2(C)CN(C)C2)c1 [Example 250]
